{"source": "patent US4728638A", "about": "“Somatostatine derivatives” (Sandoz Ltd., priority 1985, dated 1988)", "test_system": "GH-secretion", "test": "GH-secretion inhibiting test: depression of serum GH-levels in the rat (radio-immuno-assay)", "assay_type": "in vivo", "conditions": "male rats, s.c.", "description": "This test is carried out employing male rats. The test-substance is administered at varying, logarithmically staggered doses employing at least 5 rats per dose. 1, 6 and 18 hours after the administration of the test substance blood is taken. The determination of the serum GH-level is effected by radio-immuno-assay. The compounds of formula I are active in this test when administered at a dosage in the range of from 0.01 to 50 μg/kg s.c."}
{"smiles": "C[C@H](N)C(=O)NCC(=O)N[C@H]1CSSC[C@@H](C(=O)O)NC(=O)[C@H](CO)NC(=O)[C@H]([C@@H](C)O)NC(=O)[C@H](Cc2ccccc2)NC(=O)[C@H]([C@@H](C)O)NC(=O)[C@H](CCCCN)NC(=O)[C@H](Cc2c[nH]c3ccccc23)NC(=O)[C@H](Cc2ccccc2)NC(=O)[C@H](Cc2ccccc2)NC(=O)[C@H](CC(N)=O)NC(=O)[C@H](CCCCN)NC1=O", "note": "[natural somatostatine, somatostatine]", "values": [{"measurement": "ID50 in the GH-secretion inhibiting test after 1 hour", "setting": "blood taken 1 hour after administration", "result": 0.95, "unit": "mg/kg"}, {"measurement": "ID50 in the GH-secretion inhibiting test after 6 hours", "setting": "blood taken 6 hours after administration", "result": "extremely high and therefore not determinable"}]}
